Test results taken from ChEMBL document CHEMBL1201862, “PubChem BioAssay data set” (2004).
Calls of active or inactive are those of the source.

Experiments:
Bcl-2-like protein 10 = molecular target: T1, Bcl-2-like protein 10 (Homo sapiens, UniProt Q9HD36); assay: displacers of TR3 peptide from Bcl-B, primary screen, selectivity assay for Bfl-1 inhibitor project, biochemical, fluorescence polarization, FITC-TR3 peptide (AID 748);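 also: fluorescence polarization from a fluorescein-labelled TR3 peptide binding purified Bcl-B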
T1 sequence (Q9HD36 whole entry): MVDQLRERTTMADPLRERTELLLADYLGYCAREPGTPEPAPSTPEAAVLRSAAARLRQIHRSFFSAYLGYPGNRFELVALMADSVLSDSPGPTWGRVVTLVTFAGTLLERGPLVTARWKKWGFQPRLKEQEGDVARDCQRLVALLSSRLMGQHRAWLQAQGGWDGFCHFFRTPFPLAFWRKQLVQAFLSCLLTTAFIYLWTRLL

[1] = cytotoxicity in HPDE-C7 cells, cell-based, fluorescence, HTS (AID 430); type: functional; conditions: Homo sapiens
Estrogen receptor = molecular target: T2, Estrogen receptor (Homo sapiens, UniProt P03372);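 also: potency for inhibiting coactivator peptide recruitment to the receptor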
T2 sequence (P03372 whole entry): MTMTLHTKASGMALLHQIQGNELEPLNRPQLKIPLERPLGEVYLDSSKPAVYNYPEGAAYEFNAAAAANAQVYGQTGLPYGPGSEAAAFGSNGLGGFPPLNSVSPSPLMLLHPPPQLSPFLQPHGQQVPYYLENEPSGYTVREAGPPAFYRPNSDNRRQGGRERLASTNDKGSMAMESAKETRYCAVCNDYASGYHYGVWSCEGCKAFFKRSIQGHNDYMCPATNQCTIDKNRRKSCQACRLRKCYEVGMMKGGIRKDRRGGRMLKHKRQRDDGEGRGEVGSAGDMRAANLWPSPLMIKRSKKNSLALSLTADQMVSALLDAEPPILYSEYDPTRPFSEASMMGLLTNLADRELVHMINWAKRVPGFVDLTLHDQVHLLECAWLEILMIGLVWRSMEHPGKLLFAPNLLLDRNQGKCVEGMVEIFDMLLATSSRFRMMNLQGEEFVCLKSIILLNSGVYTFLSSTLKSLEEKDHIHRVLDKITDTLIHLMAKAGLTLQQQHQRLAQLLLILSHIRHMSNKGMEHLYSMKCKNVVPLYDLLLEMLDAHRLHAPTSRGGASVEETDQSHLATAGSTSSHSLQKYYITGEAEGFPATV

[2] = cytotoxicity in KRAS-transformed pancreatic duct cells, primary screen, cell-based, fluorescence, HTS (AID 431); type: functional; conditions: Homo sapiens;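 also: cell line used: HPDE-C7K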
Estrogen receptor beta [3] = molecular target: T3, Estrogen receptor beta (Homo sapiens, UniProt Q92731);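 also: recombinant ER-beta bound to coactivator SRC1 peptide in presence of estradiol agonist; inhibitors block coactivator peptide binding and lower the FRET signal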
T3 sequence (Q92731 whole entry): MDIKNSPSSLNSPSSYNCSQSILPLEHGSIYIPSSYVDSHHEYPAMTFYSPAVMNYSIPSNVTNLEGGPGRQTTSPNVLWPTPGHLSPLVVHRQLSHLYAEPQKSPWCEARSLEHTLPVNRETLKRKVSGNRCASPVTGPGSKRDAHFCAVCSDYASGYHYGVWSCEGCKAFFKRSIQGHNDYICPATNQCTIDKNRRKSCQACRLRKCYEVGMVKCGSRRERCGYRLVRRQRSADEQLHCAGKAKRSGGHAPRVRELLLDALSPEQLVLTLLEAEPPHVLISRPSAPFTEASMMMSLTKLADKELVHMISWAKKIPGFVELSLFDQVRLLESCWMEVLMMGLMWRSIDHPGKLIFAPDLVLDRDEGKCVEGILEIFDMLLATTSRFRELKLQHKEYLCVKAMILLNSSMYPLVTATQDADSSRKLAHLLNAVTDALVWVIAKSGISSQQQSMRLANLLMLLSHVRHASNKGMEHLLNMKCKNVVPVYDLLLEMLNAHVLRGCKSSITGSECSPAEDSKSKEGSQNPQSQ

Estrogen receptor beta [4] = molecular target: T3, Estrogen receptor beta; assay: ERβ–SRC-3 coactivator interaction inhibitors, confirmation, orthogonal assay, biochemical, ELISA, streptavidin-HRP readout (AID 1060)
[5] = molecular target: DNA dC->dU-editing enzyme APOBEC-3A (Homo sapiens, UniProt P31941); assay: Dose Response confirmation of small molecule APOBEC3A DNA Deaminase Inhibitors via a fluorescence-based single-stranded DNA deaminase assay. [Related pubchem assays (depositor defined):AID493011, AID493024]; type: functional
DNA dC->dU-editing enzyme APOBEC-3A, sequence (P31941 whole entry): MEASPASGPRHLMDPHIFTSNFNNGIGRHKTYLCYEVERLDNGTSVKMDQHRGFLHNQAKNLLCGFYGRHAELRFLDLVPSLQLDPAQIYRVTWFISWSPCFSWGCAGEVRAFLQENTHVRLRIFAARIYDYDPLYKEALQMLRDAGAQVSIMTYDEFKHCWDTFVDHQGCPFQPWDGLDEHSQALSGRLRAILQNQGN

[6] = molecular target: DNA dC->dU-editing enzyme APOBEC-3G (Homo sapiens, UniProt Q9HC16); type: functional;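 also: Dose-response counterscreen measuring inhibition of APOBEC3G DNA deaminase activity, run while confirming APOBEC3A inhibitors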
DNA dC->dU-editing enzyme APOBEC-3G, sequence (Q9HC16 whole entry): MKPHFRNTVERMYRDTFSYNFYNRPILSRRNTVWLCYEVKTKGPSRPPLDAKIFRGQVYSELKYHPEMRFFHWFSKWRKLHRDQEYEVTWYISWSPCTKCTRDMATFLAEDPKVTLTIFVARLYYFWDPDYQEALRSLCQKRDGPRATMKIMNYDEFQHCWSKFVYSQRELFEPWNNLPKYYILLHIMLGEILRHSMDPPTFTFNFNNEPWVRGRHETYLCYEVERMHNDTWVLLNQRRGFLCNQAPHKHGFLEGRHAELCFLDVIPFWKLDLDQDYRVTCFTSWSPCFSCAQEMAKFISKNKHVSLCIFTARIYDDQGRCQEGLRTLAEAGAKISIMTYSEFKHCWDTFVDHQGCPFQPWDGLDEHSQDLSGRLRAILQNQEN

Protein Tat = molecular target: T4, Protein Tat (Human immunodeficiency virus type 1 group M subtype B (isolate HXB2)(HIV-1), UniProt P04608); type: functional;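 also: tat binding to TAR RNA read out by fluorescence polarization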
T4 sequence (P04608 whole entry): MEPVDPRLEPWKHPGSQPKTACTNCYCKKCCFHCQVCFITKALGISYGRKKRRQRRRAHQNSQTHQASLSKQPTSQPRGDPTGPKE

[7] = test system: Streptococcus sp. 'group A'; assay: growth inhibition of control SK(-) GAS strain, dose response, counter-screen for streptokinase expression inhibitor project, luminescence, kanamycin, BacTiterGlo, confirmation (AID 1900); type: functional, organism-based
Streptokinase A = molecular target: T5, Streptokinase A (Streptococcus pyogenes serotype M1, UniProt P10520); assay: S. pyogenes streptokinase expression inhibitors, potency, dose response, plasminogen activation absorbance, OD405 (AID 1914); type: functional, Streptococcus pyogenes M1 GAS;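 also: secreted streptokinase activity via plasminogen activation per viability signal from cell pellet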
T5 sequence (P10520 whole entry): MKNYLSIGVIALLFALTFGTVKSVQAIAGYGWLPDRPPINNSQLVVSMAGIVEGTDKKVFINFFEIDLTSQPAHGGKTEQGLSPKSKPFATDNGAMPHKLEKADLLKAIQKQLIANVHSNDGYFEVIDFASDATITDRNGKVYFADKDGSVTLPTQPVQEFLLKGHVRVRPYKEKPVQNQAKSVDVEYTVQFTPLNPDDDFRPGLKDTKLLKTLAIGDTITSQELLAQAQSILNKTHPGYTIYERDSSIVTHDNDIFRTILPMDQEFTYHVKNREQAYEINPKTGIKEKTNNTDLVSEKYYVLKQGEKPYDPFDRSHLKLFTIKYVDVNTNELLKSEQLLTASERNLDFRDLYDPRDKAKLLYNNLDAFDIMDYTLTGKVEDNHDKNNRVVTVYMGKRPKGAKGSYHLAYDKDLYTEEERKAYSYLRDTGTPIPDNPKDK

Streptococcus = assay: Group A Streptococcus viability loss, dose response, counter-screen for streptokinase expression inhibitor project, luminescence, BacTiterGlo (AID 1915); type: functional, organism-based;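 also: potency for reduction of bacterial viability or growth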
Coagulation factor XII = Coagulation factor XII (Homo sapiens, UniProt P00748); type: functional;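 also: activated factor XIIa alpha cleaving a fluorogenic AMC peptide substrate; inhibitor potency from loss of enzyme activity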
Coagulation factor XII, sequence (P00748 20-372 limits assumed): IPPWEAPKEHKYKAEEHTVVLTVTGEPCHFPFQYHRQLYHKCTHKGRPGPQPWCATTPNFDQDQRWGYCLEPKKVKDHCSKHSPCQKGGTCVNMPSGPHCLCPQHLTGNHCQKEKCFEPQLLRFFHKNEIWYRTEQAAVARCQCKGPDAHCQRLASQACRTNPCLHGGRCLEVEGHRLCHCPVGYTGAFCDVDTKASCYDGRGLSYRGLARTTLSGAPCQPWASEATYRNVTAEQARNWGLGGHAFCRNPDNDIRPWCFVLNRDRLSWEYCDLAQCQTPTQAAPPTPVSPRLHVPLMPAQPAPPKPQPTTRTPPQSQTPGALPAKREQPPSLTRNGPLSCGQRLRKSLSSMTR
Coagulation factor XII, sequence (P00748 373-615 limits assumed): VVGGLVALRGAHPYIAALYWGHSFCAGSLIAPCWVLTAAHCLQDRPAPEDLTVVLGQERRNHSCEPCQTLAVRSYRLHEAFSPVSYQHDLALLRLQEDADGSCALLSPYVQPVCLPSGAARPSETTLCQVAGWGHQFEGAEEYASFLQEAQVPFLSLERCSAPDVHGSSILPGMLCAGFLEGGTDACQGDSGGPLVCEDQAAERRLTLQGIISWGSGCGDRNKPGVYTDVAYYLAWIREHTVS

[8] = molecular target: Glyceraldehyde-3-phosphate dehydrogenase (Homo sapiens, UniProt P04406)
Glyceraldehyde-3-phosphate dehydrogenase, sequence (P04406 whole entry): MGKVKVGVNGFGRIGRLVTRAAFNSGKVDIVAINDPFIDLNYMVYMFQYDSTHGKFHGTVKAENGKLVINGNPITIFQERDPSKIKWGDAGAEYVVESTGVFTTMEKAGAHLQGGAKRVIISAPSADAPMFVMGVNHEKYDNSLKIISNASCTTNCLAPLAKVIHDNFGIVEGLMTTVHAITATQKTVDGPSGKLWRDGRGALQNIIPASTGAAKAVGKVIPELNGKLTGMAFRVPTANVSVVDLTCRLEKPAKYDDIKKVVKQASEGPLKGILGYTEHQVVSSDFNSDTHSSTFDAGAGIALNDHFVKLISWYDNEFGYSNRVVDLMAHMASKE

[9] = molecular target: Alkaline phosphatase, placental type (Homo sapiens, UniProt P05187); assay: PLAP enzyme inhibitors, confirmation, biochemical, luminescence (AID 1512); type: functional
Alkaline phosphatase, placental type, sequence (P05187 whole entry): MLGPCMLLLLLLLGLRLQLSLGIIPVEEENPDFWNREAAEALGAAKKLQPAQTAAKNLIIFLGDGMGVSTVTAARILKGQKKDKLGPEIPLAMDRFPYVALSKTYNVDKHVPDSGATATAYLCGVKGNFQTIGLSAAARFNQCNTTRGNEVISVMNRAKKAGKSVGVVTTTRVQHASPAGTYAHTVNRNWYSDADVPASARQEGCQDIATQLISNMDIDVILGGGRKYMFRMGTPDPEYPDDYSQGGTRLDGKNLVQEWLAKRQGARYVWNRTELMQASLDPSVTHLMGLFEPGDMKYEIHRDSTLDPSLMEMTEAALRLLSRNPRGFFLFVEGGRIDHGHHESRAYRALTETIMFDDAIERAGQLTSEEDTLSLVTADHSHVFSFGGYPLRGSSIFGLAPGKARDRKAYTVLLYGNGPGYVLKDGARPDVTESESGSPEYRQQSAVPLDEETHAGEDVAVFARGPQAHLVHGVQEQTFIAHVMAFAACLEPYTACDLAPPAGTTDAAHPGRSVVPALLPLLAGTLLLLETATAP

[10] = molecular target: T6, Alkaline phosphatase, tissue-nonspecific isozyme (Homo sapiens, UniProt P05186); assay: human TNAP enzyme inhibitors, SAR follow-up, biochemical, luminescent, dose response (AID 1056)
T6 sequence (P05186 whole entry): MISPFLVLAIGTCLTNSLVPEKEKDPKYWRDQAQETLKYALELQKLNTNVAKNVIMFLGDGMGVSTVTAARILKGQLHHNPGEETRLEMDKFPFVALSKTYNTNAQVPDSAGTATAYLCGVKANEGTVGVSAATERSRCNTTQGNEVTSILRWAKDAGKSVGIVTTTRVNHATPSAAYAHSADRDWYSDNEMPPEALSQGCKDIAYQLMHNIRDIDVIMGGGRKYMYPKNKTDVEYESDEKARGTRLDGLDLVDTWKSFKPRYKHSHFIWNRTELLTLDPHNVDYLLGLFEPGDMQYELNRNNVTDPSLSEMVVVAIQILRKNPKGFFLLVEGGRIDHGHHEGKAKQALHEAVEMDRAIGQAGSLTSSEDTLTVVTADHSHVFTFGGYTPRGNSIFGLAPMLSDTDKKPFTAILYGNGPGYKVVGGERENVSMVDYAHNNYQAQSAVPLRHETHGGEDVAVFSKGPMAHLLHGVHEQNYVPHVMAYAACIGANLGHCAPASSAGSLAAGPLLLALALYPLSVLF

[11] = molecular target: Eukaryotic translation initiation factor 4H (Homo sapiens, UniProt Q15056); assay: human eIF4H binding inhibitors, primary screen, translation initiation inhibitor project, biochemical, uHTS, fluorescence polarization (AID 2012)
[12] = molecular target: Polyadenylate-binding protein 1 (Homo sapiens, UniProt P11940); assay: PABP poly(A) RNA binding inhibitors, primary screen, biochemical, fluorescence polarization, uHTS (AID 2014)
Polyadenylate-binding protein 1, sequence (P11940 whole entry): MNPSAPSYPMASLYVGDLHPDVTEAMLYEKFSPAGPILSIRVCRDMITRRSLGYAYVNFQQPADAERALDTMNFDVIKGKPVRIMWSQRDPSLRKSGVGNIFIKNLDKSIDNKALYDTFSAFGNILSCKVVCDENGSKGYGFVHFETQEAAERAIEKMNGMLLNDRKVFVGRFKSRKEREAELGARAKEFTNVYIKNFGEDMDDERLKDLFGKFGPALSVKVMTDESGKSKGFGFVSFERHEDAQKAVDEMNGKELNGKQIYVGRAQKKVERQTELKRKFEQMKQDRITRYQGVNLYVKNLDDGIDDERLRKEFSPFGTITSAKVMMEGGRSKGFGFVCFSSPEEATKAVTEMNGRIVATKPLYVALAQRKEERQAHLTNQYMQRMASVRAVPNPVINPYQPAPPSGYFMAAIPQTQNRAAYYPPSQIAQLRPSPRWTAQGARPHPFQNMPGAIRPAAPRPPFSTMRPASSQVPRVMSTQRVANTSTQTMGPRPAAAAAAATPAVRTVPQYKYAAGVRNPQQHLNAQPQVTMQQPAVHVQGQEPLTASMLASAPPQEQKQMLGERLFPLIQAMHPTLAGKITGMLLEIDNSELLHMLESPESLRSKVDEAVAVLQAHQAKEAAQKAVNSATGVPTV

## COc1ccc2c(c1)c(=O)oc1cc(OCC(=O)N3CCC(C)CC3)ccc12
Bcl-2-like protein 10
  IC50: 31.8 µM (active)
[1]
  EC50: > 20 µM (not active)
Estrogen receptor
  IC50: 11.7 µM (active)
[2]
  EC50: > 20 µM (not active)
Estrogen receptor beta [3]
  IC50: 5.31 µM (active)
Estrogen receptor beta [4]
  IC50: 14.3 µM (not active)
[5]
  IC50: 21.6 µM (active)
[6]
  IC50: > 100 µM (inactive)
Protein Tat
  IC50: > 100 µM (active)

## O=C(Nc1ncc(Cc2ccccc2)s1)c1cccs1
[7]
  EC50: 15.6 µM (active)
Streptokinase A
  EC50: > 150 µM (not active)
Streptococcus
  EC50: > 150 µM (not active)
Coagulation factor XII
  IC50: > 50 µM (inactive)

## Cc1n[nH]c2c1C(=O)CC(c1ccc(F)cc1)C2 (stereo not given)
[8]
  IC50: > 100 µM (not active)
[9]
  IC50: > 100 µM (inactive)
[10]
  IC50: 14.4 µM (active)

## CCCn1c2c(c(=N)c3c1CCC3)CCC2
[11]
  IC50: > 100 µM (inactive)
[12]
  IC50: 4.08 µM (active)
[5]
  IC50: 2.76 µM (active)
[6]
  IC50: 2.66 µM (active)
